US8097774B2, “Cytochrome P450 genes conferring herbicide resistance” (Syngenta Participations AG, priority 2007, dated 2012)
Like-named read-outs stand apart in the source and are kept apart here.

Columns and labels:
[1] = tested on: Transgenic progeny plants (T1 or later generations) containing the nsf transgene (vector 17108); assay: T1 seed from 17108 events, spray with other HPPD herbicides; details: sprayed at 40-80 g/ha rates or higher; evaluated for bleaching and chlorosis
Protocol: T0 transformants containing the nsf transgene (vector 17108) are allowed to set T1 seed, and the seed is harvested. This seed is planted, and the progeny analyzed to identify seedlots that are derived from germline transformed plants. Transgenic progeny plants (T1 or later generations), are analyzed to confirm mesotrione tolerance. […] Plants are evaluated for bleaching, and chlorosis, as described in Example 7.

corn CYP72A1 enzyme = details: U.S. Pat. No. 6,380,465, cited from earlier work
rice CYP81A6 enzyme = details: Pan et al. (2007); cited from earlier work
[2] = tested on: CYP76B1 gene in tobacco (Nicotiana tabacum) and Arabidopsis; details: cited from earlier work
[3] = tested on: P450 transgenic explants (transgene PCR+ve transformed plants); assay: Tobacco explants on MS agar containing mesotrione; format: in vivo
Text: Plant transformation vectors with the appropriate P450 gene expression cassette are used to transform Agrobacterium tumefaciens LBA4404. Tobacco tissue is subjected to Agrobacterium-mediated transformation using methods well described in the art. Transformed shoots are regenerated from callus resistant to the selection agent (e.g., glufosinate, butafenacil, kanamycin). Shoots are rooted on MS agar containing the selection agent.
(§1) To determine tolerance of P450 transgenic explants (i.e. a leaf plus short segment of stem containing the auxiliary bud), these are placed into MS agar (+3% sucrose) containing various concentrations of mesotrione, from 0.02 to 2 ppm. […] In these particular experiments, only the shoot that develops from the bud is bleached, the leaf on the explanted tissue remains green.
They root normally and are phenotypically indistinguishable from untransformed plants. A sub-set of the transformants is tolerant to concentrations of >0.1 ppm yielding plants looking normal and rooting well in the presence of herbicide. Some of the transformed plants can be initially bleached when subjected to the herbicide at the said higher concentrations, but on prolonged exposure they progressively “green up” and “recover”. […]

[4] = tested on: transformant with vector 17108 (event 17108-A, nsf P450 gene); assay: Mesotrione spray on soybean T0 plants, chlorosis rating; format: in vivo, Soybean (Glycine max); details: 52.5 g/ha mesotrione
Text: A similar binary vector (17108) was constructed with the corn cytochrome P450 gene ‘nsf’ instead of the CYP72A1 gene (FIG. 4). The nsf gene in this vector was codon optimized for soybean expression (SEQ ID NO:2) based upon the predicted amino acid sequence of the maize gene coding region (SEQ ID NO:1).
(§2) T0 plants were taken from tissue culture to the greenhouse where they are transplanted into saturated soil (Redi-Earth® Plug and Seedling Mix, Sun Gro Horticulture, Bellevue, Wash.) mixed with 1% granular Marathon® (Olympic Horticultural Products, Co., Mainland, Pa.) at 5-10 g/gal Redi-Earth® Mix in 2″ square pots. The plants were covered with humidity domes and placed in a Conviron chamber (Pembina, N. Dak.) with the following environmental conditions: 24° C. day; 18° C. night; 23 hr photoperiod; 80% relative humidity.
(§3) After plants became established in the soil and new growth appeared (˜1-2 weeks), plants were sampled and tested for the presence of desired transgene by Taqman® analysis using probes for P450 (CYP72A1), or promoters (prCMP and prUBq3). All positive plants and several negative plants were transplanted into 4″ square pots containing MetroMix® 380 soil (Sun Gro Horticulture, Bellevue, Wash.). Sierra 17-6-12 slow release fertilizer was incorporated into the soil at the recommended rate. The negative plants serve as controls for the spray experiment. The plants were then relocated into a standard greenhouse to acclimatize (˜1 week). The environmental conditions were: 27° C. day; 21° C. night; 12 hr photoperiod (with ambient light); ambient humidity. After acclimatizing (˜1 week), the plants were ready to be sprayed with the desired herbicides.
The plants from Example 6 were sprayed with mesotrione to determine if they were tolerant to this herbicide. Callisto® (active ingredient mesotrione, Syngenta Crop Protection, Inc., Greensboro, N.C.) was mixed in water and X-77 surfactant (0.25% v/v final concentration). Plants were placed in a DeVries spray chamber (DeVries Manufacturing, Hollandale, Minn.), and the distance from the nozzle to the top of the plants was adjusted to approximately 12 inches. The system was set up so that the boom moved at 2 mph, and delivered 25 gallon fluid per acre. The spray rate was calibrated to spray 52.5 g/ha mesotrione over the top of the plants. Negative T0 transformants (i.e., negative by Taqman® for presence of transgenes), T0 transformants with vector 17107, and one transformant with vector 17108 (event 17108-A), were sprayed in this manner. After spraying, plants were placed in the greenhouse, under the same conditions as described in Example 3 above, and evaluated frequently for symptoms. […] However, over time, leaves greened up on all plants. […]

[5] = tested on: T0 transformants with vector 17107 (corn CYP72A1 cytochrome P450 gene); assay: as above; format: in vivo, Soybean (Glycine max); details: 17107 positive, 52.5 g/ha mesotrione, 22 days after the spray
Text: A binary vector (17107) for dicot (soybean) transformation was constructed, with the Arabidopsis UBQ3 promoter driving the corn CYP72A1 cytochrome P450 gene, followed by NOS terminator (FIG. 3). The gene was codon optimized for soybean expression based upon the predicted amino acid sequence of the maize gene coding region. The amino acid sequence of the protein encoded by the CYP72A1 gene is provided in SEQ ID NO:3, and the nucleotide sequence of the optimized CYP72A1 gene in this binary transformation vector is provided in SEQ ID NO:4. The transformation vector also contains two PAT gene cassettes (one with the 35S promoter and one with the CMP promoter, and both PAT genes are followed by the nos terminator) for glufosinate based selection during the transformation process.
as §2, §3
The plants from Example 6 were sprayed with mesotrione to determine if they were tolerant to this herbicide. Callisto® (active ingredient mesotrione, Syngenta Crop Protection, Inc., Greensboro, N.C.) was mixed in water and X-77 surfactant (0.25% v/v final concentration). Plants were placed in a DeVries spray chamber (DeVries Manufacturing, Hollandale, Minn.), and the distance from the nozzle to the top of the plants was adjusted to approximately 12 inches. The system was set up so that the boom moved at 2 mph, and delivered 25 gallon fluid per acre. The spray rate was calibrated to spray 52.5 g/ha mesotrione over the top of the plants. Negative T0 transformants (i.e., negative by Taqman® for presence of transgenes), T0 transformants with vector 17107, and one transformant with vector 17108 (event 17108-A), were sprayed in this manner. After spraying, plants were placed in the greenhouse, under the same conditions as described in Example 3 above, and evaluated frequently for symptoms. […] However, over time, leaves greened up on all plants. New growth developed as partially bleached, or chlorotic, and the leaves that initially were bleached also greened up. […] At 22 days after the spray, the plants were rated for symptoms on the leaves that were initially bleached. Visible chlorosis was only seen on the leaves immediately above the leaves that were exposed during the spray (i.e., the leaves that had necrotic spots), and in some events, on leaves in sideshoots. The partial chlorosis was evident as light green patches, and often as light green (almost yellow) edges on the leaves.

[6] = tested on: untransformed explants (wild-type tobacco); assay: Tobacco explants on MS agar containing mesotrione; format: in vivo; details: 0.02 ppm mesotrione in MS agar (+3% sucrose); no recovery following prolonged exposure
Text: as §1

corn plants = assay: Mesotrione levels in treated corn plants; format: in vivo; details: over time; P450 based degradation mechanism
[7] = tested on: Negative T0 transformants (negative by Taqman for presence of transgenes); assay: Mesotrione spray on soybean T0 plants, chlorosis rating; format: in vivo, Soybean (Glycine max); details: 52.5 g/ha mesotrione, 22 days after the spray
Protocol: as §2, §3
The plants from Example 6 were sprayed with mesotrione to determine if they were tolerant to this herbicide. Callisto® (active ingredient mesotrione, Syngenta Crop Protection, Inc., Greensboro, N.C.) was mixed in water and X-77 surfactant (0.25% v/v final concentration). Plants were placed in a DeVries spray chamber (DeVries Manufacturing, Hollandale, Minn.), and the distance from the nozzle to the top of the plants was adjusted to approximately 12 inches. The system was set up so that the boom moved at 2 mph, and delivered 25 gallon fluid per acre. The spray rate was calibrated to spray 52.5 g/ha mesotrione over the top of the plants. Negative T0 transformants (i.e., negative by Taqman® for presence of transgenes), T0 transformants with vector 17107, and one transformant with vector 17108 (event 17108-A), were sprayed in this manner. After spraying, plants were placed in the greenhouse, under the same conditions as described in Example 3 above, and evaluated frequently for symptoms. […] However, over time, leaves greened up on all plants. New growth developed as partially bleached, or chlorotic, and the leaves that initially were bleached also greened up. […] At 22 days after the spray, the plants were rated for symptoms on the leaves that were initially bleached. […]

[8] = tested on: All plants that were sprayed (negative T0 transformants, vector 17107, event 17108-A); assay: Mesotrione spray on soybean T0 plants, early symptoms on all sprayed plants; format: in vivo, Soybean (Glycine max); details: 52.5 g/ha mesotrione over the top
Protocol: as §2
as §3, with “The negative plants serve as controls for the spray experiment. The plants were then relocated into a standard greenhouse to acclimatize (˜1 week). The environmental conditions were: 27° C. day; 21° C. night; 12 hr photoperiod (with ambient light); ambient humidity.” left out
The plants from Example 6 were sprayed with mesotrione to determine if they were tolerant to this herbicide. […] After spraying, plants were placed in the greenhouse, under the same conditions as described in Example 3 above, and evaluated frequently for symptoms. […]

[9] = heterologous expression of CYP76B1, Didierjean et al. (2002)
[10] = event 17108-A, 17108 positive, 22 days after the spray

Compound: CS(=O)(=O)c1ccc(C(=O)C2=C(Sc3ccccc3)C3CCC(C3)C2=O)c(Cl)c1 (stereo not shown) [Benzobicyclon]
- tolerance when sprayed [1]: display tolerance

Compound: Cc1ccc(C(=O)COc2c(C(=O)c3ccc(Cl)c(C)c3Cl)c(C)nn2C)cc1 [Benzofenap]
- tolerance when sprayed [1]: display tolerance

Compound: CS(=O)(=O)c1cc(Cl)ccc1C(=O)c1cnoc1C1CC1 [Isoxachlortole]
- tolerance when sprayed [1]: display tolerance

Compound: Cc1nn(C)c(O)c1C(=O)c1ccc(C(F)(F)F)cc1S(C)(=O)=O [Pyrasulfatole]
- tolerance when sprayed [1]: display tolerance

Compound: CS(=O)(=O)c1ccc(C(=O)C2C(=O)CCCC2=O)c(Cl)c1 [Sulcotrione]
- tolerance when sprayed [1]: display tolerance

Compound: Cc1c(C(=O)c2cnn(C)c2O)ccc(S(C)(=O)=O)c1C1=NOCC1 [Topramezone]
- tolerance when sprayed [1]: display tolerance

Compound: CC(C)N1C(=O)c2ccccc2NS1(=O)=O [bentazon]
- ability of the enzyme to degrade the herbicide (corn CYP72A1 enzyme): degrade
- ability of the enzyme to degrade the herbicide (rice CYP81A6 enzyme): able to degrade

Compound: COc1cc(Cl)nc(NC(=O)NS(=O)(=O)c2ccccc2C(=O)O)n1 [chlorimuron]
- ability of the enzyme to degrade the herbicide (corn CYP72A1 enzyme): degrade

Compound: Cc1ccc(NC(=O)N(C)C)cc1Cl [chlortoluron]
- ability of the enzyme to degrade the herbicide (corn CYP72A1 enzyme): degrade
- increase in tolerance [2, 9]: 10 fold

Compound: CC(C)c1ccc(NC(=O)N(C)C)cc1 [isoproturon]
- increase in tolerance ([2]; in vivo): 10 fold

Compound: CON(C)C(=O)Nc1ccc(Cl)c(Cl)c1 [linuron]
- level of tolerance [2, 9]: 20 fold

Compound: CCOC(=O)CC(SP(=S)(OC)OC)C(=O)OCC (stereo not shown) [malathion]
- ability of these plants to degrade the insecticide (corn CYP72A1 enzyme; plants): able to degrade

Compound: CS(=O)(=O)c1ccc(C(=O)C2C(=O)CCCC2=O)c([N+](=O)[O-])c1 [mesotrione]
- bleaching at the level which causes symptoms on wild-type tobacco ([3]; a number of the transgene PCR+ve transformed plants): no indication of bleaching
- concentration tolerated, plants looking normal and rooting well ([3]; a sub-set of the transformants, mesotrione in MS agar): > 0.1 ppm
- recovery from the mesotrione injury ([4]; event 17108-A only): fully recover
- Number of leaves with <50% chlorisis [4, 10]: 0
- Number of leaves with ≧50% chlorosis [4, 10]: 0
- greening of bleached leaves compared with events with vector 17107 ([4]; event 17108-A, 1 week after spray): turned green faster
- Number of leaves with <50% chlorisis ([5]; event 17107-A): 0
- Number of leaves with ≧50% chlorosis ([5]; event 17107-A): 2
- Number of leaves with <50% chlorisis ([5]; event 17107-B): 2
- Number of leaves with ≧50% chlorosis ([5]; event 17107-B): 2
- Number of leaves with <50% chlorisis ([5]; event 17107-C): 1
- Number of leaves with ≧50% chlorosis ([5]; event 17107-C): 1
- Number of leaves with <50% chlorisis ([5]; event 17107-D): 2
- Number of leaves with ≧50% chlorosis ([5]; event 17107-D): 3
- Number of leaves with <50% chlorisis ([5]; event 17107-E): 1
- Number of leaves with ≧50% chlorosis ([5]; event 17107-E): 2
- Number of leaves with <50% chlorisis ([5]; event 17107-F): 2
- Number of leaves with ≧50% chlorosis ([5]; event 17107-F): 1
- Number of leaves with <50% chlorisis ([5]; event 17107-G): 2
- Number of leaves with ≧50% chlorosis ([5]; event 17107-G): 1
- Number of leaves with <50% chlorisis ([5]; event 17107-H): 4
- Number of leaves with ≧50% chlorosis ([5]; event 17107-H): 2
- Number of leaves with <50% chlorisis ([5]; event 17107-I): 1
- Number of leaves with ≧50% chlorosis ([5]; event 17107-I): 1
- bleaching of explants [6]: fully bleached
- mesotrione levels in treated corn plants (corn plants): decrease over time
- Number of leaves with <50% chlorisis ([7]; event 6D032-A #4, Negative): 1
- Number of leaves with ≧50% chlorosis ([7]; event 6D032-A #4, Negative): 1
- Number of leaves with <50% chlorisis ([7]; event 6D032-A #14, Negative): 0
- Number of leaves with ≧50% chlorosis ([7]; event 6D032-A #14, Negative): 2
- symptoms on leaves exposed at the time of herbicide application [8]: developed necrotic symptoms on small portions of the leaves
- bleaching of new growth that emerged from the plants ([8]; leaves greened up over time): completely bleached
